Patent publication US20150252048A1, “SUBSTITUTED N-(3-PYRIMIDIN-4-YL)PHENYL)ACRYLAMIDE ANALOGS AS TYROSINE RECEPTOR KINASE BTK INHIBITORS” (UNIVERSITY OF UTAH RESEARCH FOUNDATION, priority 2012, published 2015)

Assays:
[1] = tested on: 451 kinase types; assay: KINOMEscan Assay Panel broad kinase screen; format: binding, human; conditions: screen against 451 kinase types
Procedure: The kinase selectivity of a representative disclosed compound, compound 3 (N-(3-(6-((3-morpholinophenyl)amino)-1H-pyrazolo[3,4-d]pyrimidin-4-yl)phenyl)acrylamide), which corresponds to compound 3 in Table I, was evaluated in multiple kinase assays. A broad based screen was conducted against 451 kinase types using the KINOMEscan Assay Panel. The results were able to map 14 interactions with an S-Score(35)=0.03. The interactions are highlighted in FIG. 4 (panels A and B), and are indicated by the dark circles in the figure.

[2] = biological target: EGFR (T790M) (Homo sapiens, UniProt P00533, T790M); assay: Specific kinase IC50 assay; format: biochemical; conditions: 1 μM ATP, 10-dose, duplicate
EGFR (T790M), sequence (P00533 25-1210 T790M, species assumed): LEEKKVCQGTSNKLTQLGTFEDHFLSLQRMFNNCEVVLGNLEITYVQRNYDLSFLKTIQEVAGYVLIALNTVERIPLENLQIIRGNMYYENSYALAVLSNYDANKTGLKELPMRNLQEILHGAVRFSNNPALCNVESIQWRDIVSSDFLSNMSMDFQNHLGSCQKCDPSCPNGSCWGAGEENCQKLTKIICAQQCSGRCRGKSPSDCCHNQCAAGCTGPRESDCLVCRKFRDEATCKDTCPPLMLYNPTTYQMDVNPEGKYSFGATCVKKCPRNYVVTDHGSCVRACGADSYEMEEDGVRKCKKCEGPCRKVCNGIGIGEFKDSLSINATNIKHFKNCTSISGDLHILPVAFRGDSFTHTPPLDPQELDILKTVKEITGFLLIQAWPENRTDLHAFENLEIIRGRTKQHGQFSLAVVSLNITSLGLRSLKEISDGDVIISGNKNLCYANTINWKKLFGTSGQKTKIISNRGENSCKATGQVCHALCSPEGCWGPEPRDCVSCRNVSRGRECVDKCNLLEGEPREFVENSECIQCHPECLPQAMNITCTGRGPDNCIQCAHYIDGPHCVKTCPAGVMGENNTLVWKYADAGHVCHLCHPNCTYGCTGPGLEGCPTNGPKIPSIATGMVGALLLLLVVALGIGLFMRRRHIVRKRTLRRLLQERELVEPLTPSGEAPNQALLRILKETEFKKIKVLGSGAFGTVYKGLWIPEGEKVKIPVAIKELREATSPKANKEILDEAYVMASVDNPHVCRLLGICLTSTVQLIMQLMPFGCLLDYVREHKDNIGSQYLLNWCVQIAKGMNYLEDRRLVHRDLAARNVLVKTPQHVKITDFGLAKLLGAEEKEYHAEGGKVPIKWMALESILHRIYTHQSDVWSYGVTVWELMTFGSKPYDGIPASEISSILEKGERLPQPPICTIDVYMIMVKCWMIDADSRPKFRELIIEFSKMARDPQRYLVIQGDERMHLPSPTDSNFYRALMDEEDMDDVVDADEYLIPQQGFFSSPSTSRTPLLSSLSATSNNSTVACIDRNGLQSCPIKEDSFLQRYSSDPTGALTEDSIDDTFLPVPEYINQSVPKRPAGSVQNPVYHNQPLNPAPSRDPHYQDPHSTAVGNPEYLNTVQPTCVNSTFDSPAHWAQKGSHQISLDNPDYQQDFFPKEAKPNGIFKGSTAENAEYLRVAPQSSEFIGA
Procedure: (§1) The assays were carried out in the presence of 1 μM ATP and were conducted in a 10-dose format in duplicate with three-fold serial dilutions starting at 10 μM.

[3] = biological target: ERBB4/HER4 (Homo sapiens, UniProt Q15303); assay: Specific kinase IC50 assay; format: biochemical; conditions: 1 μM ATP, 10-dose, duplicate
ERBB4/HER4, sequence (Q15303 26-1308): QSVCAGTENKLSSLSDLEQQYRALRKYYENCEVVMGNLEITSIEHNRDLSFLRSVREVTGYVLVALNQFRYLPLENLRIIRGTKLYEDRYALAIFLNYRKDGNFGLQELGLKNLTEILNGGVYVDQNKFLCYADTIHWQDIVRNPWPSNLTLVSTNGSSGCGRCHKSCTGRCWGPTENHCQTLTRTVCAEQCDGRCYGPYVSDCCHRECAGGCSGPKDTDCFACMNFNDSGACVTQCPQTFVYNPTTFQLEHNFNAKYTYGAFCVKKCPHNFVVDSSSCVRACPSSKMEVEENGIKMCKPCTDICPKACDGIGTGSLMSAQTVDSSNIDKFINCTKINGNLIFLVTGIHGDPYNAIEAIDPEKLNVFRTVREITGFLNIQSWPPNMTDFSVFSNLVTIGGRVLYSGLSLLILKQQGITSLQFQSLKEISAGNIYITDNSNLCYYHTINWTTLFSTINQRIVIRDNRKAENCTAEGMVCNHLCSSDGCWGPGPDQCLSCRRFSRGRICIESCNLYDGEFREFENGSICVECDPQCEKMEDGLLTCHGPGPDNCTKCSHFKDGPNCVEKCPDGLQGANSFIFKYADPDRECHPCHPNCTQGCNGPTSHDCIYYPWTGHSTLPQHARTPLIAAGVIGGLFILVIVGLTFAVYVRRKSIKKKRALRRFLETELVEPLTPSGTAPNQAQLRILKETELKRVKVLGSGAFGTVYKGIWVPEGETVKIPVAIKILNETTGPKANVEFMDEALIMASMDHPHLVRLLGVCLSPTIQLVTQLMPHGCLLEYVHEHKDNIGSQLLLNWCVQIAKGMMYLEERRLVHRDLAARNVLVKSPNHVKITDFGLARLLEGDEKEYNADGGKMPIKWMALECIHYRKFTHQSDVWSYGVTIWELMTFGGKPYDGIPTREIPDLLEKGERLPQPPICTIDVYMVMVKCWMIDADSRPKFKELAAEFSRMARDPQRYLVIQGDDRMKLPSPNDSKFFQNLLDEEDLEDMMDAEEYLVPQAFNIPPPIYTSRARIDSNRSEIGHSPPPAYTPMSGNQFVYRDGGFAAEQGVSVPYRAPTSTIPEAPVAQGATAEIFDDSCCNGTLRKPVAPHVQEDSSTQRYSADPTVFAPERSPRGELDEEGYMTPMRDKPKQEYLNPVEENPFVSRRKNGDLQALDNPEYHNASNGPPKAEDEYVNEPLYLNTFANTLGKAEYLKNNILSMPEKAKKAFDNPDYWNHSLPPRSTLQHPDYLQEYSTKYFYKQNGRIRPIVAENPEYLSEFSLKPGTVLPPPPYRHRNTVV
Procedure: as §1

[4] = biological target: T1, JAK3 (Homo sapiens, UniProt P52333); assay: Specific kinase IC50 assay; format: biochemical; conditions: 1 μM ATP, 10-dose, duplicate
T1 sequence (P52333 1-1124): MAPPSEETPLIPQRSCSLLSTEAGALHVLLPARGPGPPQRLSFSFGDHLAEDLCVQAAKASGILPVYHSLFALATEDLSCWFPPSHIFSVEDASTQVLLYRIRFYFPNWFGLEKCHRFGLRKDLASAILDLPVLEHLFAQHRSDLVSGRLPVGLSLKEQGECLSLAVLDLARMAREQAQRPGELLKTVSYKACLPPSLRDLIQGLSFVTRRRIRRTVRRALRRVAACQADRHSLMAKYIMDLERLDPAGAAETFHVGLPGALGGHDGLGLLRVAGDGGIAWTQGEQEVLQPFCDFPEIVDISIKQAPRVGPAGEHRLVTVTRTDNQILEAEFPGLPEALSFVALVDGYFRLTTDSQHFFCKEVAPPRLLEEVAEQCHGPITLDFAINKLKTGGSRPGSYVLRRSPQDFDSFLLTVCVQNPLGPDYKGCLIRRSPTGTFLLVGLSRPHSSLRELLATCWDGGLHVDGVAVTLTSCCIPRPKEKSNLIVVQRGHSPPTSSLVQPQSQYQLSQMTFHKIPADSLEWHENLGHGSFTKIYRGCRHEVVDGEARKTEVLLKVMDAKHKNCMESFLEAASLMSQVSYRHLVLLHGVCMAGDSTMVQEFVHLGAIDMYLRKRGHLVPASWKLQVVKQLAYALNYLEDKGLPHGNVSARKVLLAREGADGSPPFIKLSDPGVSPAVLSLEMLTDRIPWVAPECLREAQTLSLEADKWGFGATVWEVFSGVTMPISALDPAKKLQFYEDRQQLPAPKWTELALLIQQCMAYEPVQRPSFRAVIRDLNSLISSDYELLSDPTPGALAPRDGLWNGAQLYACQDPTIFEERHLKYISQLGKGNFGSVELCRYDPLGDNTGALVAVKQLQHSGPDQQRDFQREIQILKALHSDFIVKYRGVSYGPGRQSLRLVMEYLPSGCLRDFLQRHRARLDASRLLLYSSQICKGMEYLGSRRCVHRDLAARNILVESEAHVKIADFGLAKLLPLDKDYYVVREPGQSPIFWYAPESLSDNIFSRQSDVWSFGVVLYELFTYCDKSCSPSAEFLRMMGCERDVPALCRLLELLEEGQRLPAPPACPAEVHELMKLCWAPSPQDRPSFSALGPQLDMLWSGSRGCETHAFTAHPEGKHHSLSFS
Procedure: as §1

[5] = biological target: BTK (Homo sapiens, UniProt Q06187); assay: BTK kinase assay: time resolved-FRET (HTRF) assay; format: biochemical; set-up: recombinant full-length human BTK kinase with a (His)6 tag; (His)6; purchased Invitrogen Corporation, Carlsbad, Calif; conditions: 10 nM BTK, 60 μM ATP, 1 μM substrate
BTK, sequence (Q06187 whole entry): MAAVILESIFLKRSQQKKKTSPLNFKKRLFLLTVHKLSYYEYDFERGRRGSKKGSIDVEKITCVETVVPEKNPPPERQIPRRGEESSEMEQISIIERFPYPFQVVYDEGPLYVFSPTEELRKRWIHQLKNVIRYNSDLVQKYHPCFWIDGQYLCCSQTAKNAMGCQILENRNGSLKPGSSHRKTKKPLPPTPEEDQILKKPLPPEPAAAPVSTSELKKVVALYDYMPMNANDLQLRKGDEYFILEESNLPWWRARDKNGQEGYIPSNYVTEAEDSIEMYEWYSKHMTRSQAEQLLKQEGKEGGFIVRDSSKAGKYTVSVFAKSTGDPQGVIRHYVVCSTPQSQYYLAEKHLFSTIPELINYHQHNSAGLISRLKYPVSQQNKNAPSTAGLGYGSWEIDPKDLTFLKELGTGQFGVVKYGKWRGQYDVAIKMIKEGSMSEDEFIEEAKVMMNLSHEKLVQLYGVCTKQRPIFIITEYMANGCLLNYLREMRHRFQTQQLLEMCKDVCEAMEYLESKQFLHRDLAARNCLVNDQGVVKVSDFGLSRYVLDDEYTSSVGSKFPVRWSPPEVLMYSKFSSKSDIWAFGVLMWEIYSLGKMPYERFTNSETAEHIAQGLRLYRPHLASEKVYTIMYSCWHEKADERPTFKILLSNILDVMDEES
Procedure: Activity of compounds was routinely confirmed using a secondary assay as described herein. The secondary assay was a time resolved-FRET kinase assay. Test compound are diluted to desired concentrations in kinase reaction buffer and briefly incubated with BTK kinase (as described above; Invitrogen). The reaction is initiated by the addition of ATP and enzyme substrate, HTRF® KinEASE™-TK Substrate-biotin (Cisbio US, Bedford, Mass.). The composition of the reaction (10 μl) was: 1% v/v DMSO, 10 nM BTK, 60 μM ATP, and 1 μM substrate. After incubation at room temperature for 60 min, the enzyme reaction is stopped by EDTA-containing buffer, which also contains europium-labeled (Eu^3+-Cryptate) anti-phosphotyrosine antibody (Cisbio) and Streptavidin-XL665 (Cisbio). The europium-labeled antibody generates a time-resolved FRET signal with the Stepavidin-XL665, which binds to the biotinylated TK substrate through the streptavidin conjugate when the substrate is phosphorylated. After one hour incubation at room temperature, fluoresence was measured with excitation of 320 nm and dual emission of 615 and 665 nm on an EnVision microplate reader. Signal is expressed in terms of a TR-FRET ratio (665:615).
IC50 values are determined using GraphPad Prism 5 software. The data were entered as an X-Y plot into the software as percent inhibition for each concentration of the drug. The concentration values of the drug were log transformed and the nonlinear regression was carried out using the “sigmoidal dose-response (variable slope)” option within the GraphPad software to model the data and calculate IC50 values. The IC50 values reported are the concentration of drug at which 50% inhibition was reached.
Activity (IC50) was determined in the BTK assays describe herein below, i.e. either the ADP generation assay and/or the time-resolved FRET assay, and the data are shown in Table III. The compound number corresponds to the compound numbers used in Table I. In the table below, “ADP Assay” refers to the assay which measures production of ADP resulting from use of ATP by the kinase; and “HTRF Assay” refers to the time resolved-FRET kinase assay described in the examples. Multiple values in a given column indicate the results of more than one assay for the given compound. Representative data of the type used to determine the IC50 values for the ADP assay in Table III are shown in FIG. 8 for compounds 3, 4, and 5.

In the case of `C=CC(=O)Nc1cccc(-c2nc(Nc3cccc(N4CCOCC4)c3)nc3[nH]ncc23)c1` [Compound 3, N-(3-(6-((3-morpholinophenyl)amino)-1H-pyrazolo[3,4-d]pyrimidin-4-yl)phenyl)acrylamide], the “Number of interactions mapped” value [1] is reported as 14, the “S-Score(35)” value [1] is reported as 0.03 and the IC50 [2] is reported as 979 nM. For the same compound, the IC50 [3] was 17.5 nM, the IC50 [4] was 66.6 nM and the IC50 [5] was 8 nM.
